Data published in PubChem BioAssay AID330 (DTP/NCI, 2004).
Where “and” joins values, the source holds several entries; their conditions need not be identical. Equal entries are not always repeated. Inconclusive results and toxic doses are left out. How the source made its calls: active means survival T/C of 150% or more; inactive means T/C below 125% in these data.

System: P388 leukemia ip, CD2F1 mice, survival T/C
Assay: NCI In Vivo Anticancer Drug Screen. Data for tumor model P388 Leukemia (intraperitoneal) in CD2F1 (CDF1) mice
Details: endpoint: median survival time, higher = longer survival
Outline: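 Mice carrying the transplanted tumor received test compound or vehicle. Survival was recorded in each group, and the value is the treated-group measurement divided by that of the vehicle-treated control group.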

[1] = dose: 12.5 mg/kg/injection, schedule: Q01DX005 (ip), vehicle: saline with Tween-80
[2] = dose: 50.0 mg/kg/injection, schedule: Q01DX005 (ip), vehicle: saline with Tween-80
[3] = dose: 100.0 mg/kg/injection, schedule: Q01DX005 (ip), vehicle: saline with Tween-80
[4] = dose: 50.0 mg/kg/injection, schedule: Q01DX009 (ip), vehicle: saline with Tween-80
[5] = dose: 100.0 mg/kg/injection, schedule: Q01DX009 (ip), vehicle: saline with Tween-80
[6] = dose: 200.0 mg/kg/injection, schedule: Q01DX009 (ip), vehicle: saline with Tween-80
[7] = dose: 200.0 mg/kg/injection, schedule: Q01DX005 (ip), vehicle: saline with Tween-80

Measured: T/C

CC(C)NC(=O)OCc1c(COC(=O)NC(C)C)c(-c2ccc(Cl)c(Cl)c2)n2c1CS(=O)(=O)C2
inactive: dose: 6.25 mg/kg/injection, schedule: Q01DX005 (ip), vehicle: saline with Tween-80 101 % of control | [1] 100 % of control and 87 % of control | [2] 86 % of control

CC(C)(C)NC1=C([N+](=O)[O-])CCCC1
inactive: [2] 93 % of control | [3] 93 % of control

CCOC(=O)CCC#N
inactive: dose: 50.0 mg/kg/injection, schedule: Q01DX009 (ip), vehicle: saline 99 % of control and 105 % of control | dose: 100.0 mg/kg/injection, schedule: Q01DX009 (ip), vehicle: saline 107 % of control and 108 % of control | dose: 200.0 mg/kg/injection, schedule: Q01DX009 (ip), vehicle: saline 105 % of control and 106 % of control | dose: 400.0 mg/kg/injection, schedule: Q01DX009 (ip), vehicle: saline 100 % of control

Cc1cc(C)n2c(-c3ccccc3)c(C)c(C#N)c2n1
inactive: dose: 60.0 mg/kg/injection, schedule: Q01DX005 (ip), vehicle: saline with Tween-80 106 % of control | dose: 120.0 mg/kg/injection, schedule: Q01DX005 (ip), vehicle: saline with Tween-80 100 % of control | dose: 240.0 mg/kg/injection, schedule: Q01DX005 (ip), vehicle: saline with Tween-80 91 % of control

CN(C)CCCC1(c2ccccc2)SC(C)(C)c2ccc(Cl)cc21 (stereo not given)
inactive: dose: 25.0 mg/kg/injection, schedule: Q01DX001 (ip), vehicle: Klucel (hydroxypropylcellulose) (HPC) 102 % of control | dose: 50.0 mg/kg/injection, schedule: Q01DX001 (ip), vehicle: Klucel (hydroxypropylcellulose) (HPC) 100 % of control

Nc1c(Cl)c(Cl)nc(C(=O)O)c1Cl
inactive: dose: 25.0 mg/kg/injection, schedule: Q01DX009 (ip), vehicle: Klucel (hydroxypropylcellulose) (HPC) 101 % of control | dose: 25.0 mg/kg/injection, schedule: Q01DX009 (ip), vehicle: saline with Tween-80 102 % of control | dose: 50.0 mg/kg/injection, schedule: Q01DX009 (ip), vehicle: Klucel (hydroxypropylcellulose) (HPC) 86 % of control | [4] 100 % of control | dose: 100.0 mg/kg/injection, schedule: Q01DX009 (ip), vehicle: Klucel (hydroxypropylcellulose) (HPC) 93 % of control | [5] 100 % of control | dose: 200.0 mg/kg/injection, schedule: Q01DX009 (ip), vehicle: Klucel (hydroxypropylcellulose) (HPC) 93 % of control | [6] 111 % of control | dose: 400.0 mg/kg/injection, schedule: Q01DX009 (ip), vehicle: saline with Tween-80 115 % of control

CCCCCCCCCCCCSC1COC2C(SCCCCCCCCCCCC)COC12 (stereo not given)
inactive: [2] 100 % of control | [3] 96 % of control | [7] 99 % of control

CN(C)c1ncnc2c1cnn2C
inactive: [4] 109 % of control | dose: 50.0 mg/kg/injection, schedule: Q04DX003 (ip), vehicle: saline sonified 100 % of control | dose: 100.0 mg/kg/injection, schedule: Q04DX003 (ip), vehicle: saline sonified 100 % of control | dose: 200.0 mg/kg/injection, schedule: Q04DX003 (ip), vehicle: saline sonified 109 % of control

CC(=O)/C(=C/c1ccc(OC2OC(CO)C(O)C(O)C2O)cc1)C(=O)CCN(C)C (stereo not given)
inactive: dose: 50.0 mg/kg/injection, schedule: Q01DX005 (ip), vehicle: saline 107 % of control | dose: 100.0 mg/kg/injection, schedule: Q01DX005 (ip), vehicle: saline 93 % of control | dose: 200.0 mg/kg/injection, schedule: Q01DX005 (ip), vehicle: saline 100 % of control

CCOC(=O)c1c(NC(=S)NC)sc2c1CCCC2
inactive: [4] 106 % of control | [5] 108 % of control | [6] 91 % of control

CC(S)c1nc2ccccc2[nH]1 (stereo not given)
inactive: dose: 100.0 mg/kg/injection, schedule: Q01DX001 (ip), vehicle: Klucel + Tween-80 100 % of control | dose: 200.0 mg/kg/injection, schedule: Q01DX001 (ip), vehicle: Klucel + Tween-80 97 % of control | dose: 400.0 mg/kg/injection, schedule: Q01DX001 (ip), vehicle: Klucel + Tween-80 111 % of control

NC(=O)NC1CCCCCCC1
inactive: dose: 100.0 mg/kg/injection, schedule: Q04DX003 (ip), vehicle: saline with Tween-80 100 % of control | dose: 200.0 mg/kg/injection, schedule: Q04DX003 (ip), vehicle: saline with Tween-80 109 % of control | dose: 400.0 mg/kg/injection, schedule: Q04DX003 (ip), vehicle: saline with Tween-80 95 % of control

CC(=O)C1=C(C)O/C(=C/c2cccc(Cl)c2)C1=O
inactive: [1] 107 % of control | dose: 25.0 mg/kg/injection, schedule: Q01DX005 (ip), vehicle: saline with Tween-80 118 % of control | [2] 120 % of control and 121 % of control | [3] 118 % of control | [7] 119 % of control

COc1cc2c(c(OC)c1OC)-c1cc3c(cc1CC(COC(C)=O)C(COC(C)=O)C2)OCO3 (stereo not given)
inactive: dose: 6.25 mg/kg/injection, schedule: Q04DX002 (ip), vehicle: saline with Tween-80 103 % of control | dose: 12.5 mg/kg/injection, schedule: Q04DX002 (ip), vehicle: saline with Tween-80 101 % of control | dose: 25.0 mg/kg/injection, schedule: Q04DX002 (ip), vehicle: saline with Tween-80 100 % of control
